Reference: patent US12275731B2, “Azaindole inhibitors of wild-type and mutant forms of LRRK2” (DANA-FARBER CANCER INSTITUTE, INC., priority 2018, dated 2025)

Assays:
Assay in all cases: KinomeScan profiling
Type in all cases: binding
HCK = HCK (Homo sapiens, UniProt P08631); conditions: read-out: % control
Procedure, shortened: (§1)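 Selectivity was assessed by binding competition at 1 μM against 468 kinases. Values below 35% of control define an interaction.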

TRKC = TRKC (Homo sapiens, UniProt Q16288); conditions: read-out: % control
Procedure, shortened: as §1

KIT-autoinhibited = molecular target: T1, KIT-autoinhibited (Homo sapiens, UniProt P10721); conditions: read-out: % control
T1 construct: purchased KinomeScan®
Procedure, shortened: as §1

MAP4K3 = molecular target: T2, MAP4K3 (Homo sapiens, UniProt Q8IVH8); conditions: MAP4K3, 1 μM; read-out: % control
T2 sequence (Q8IVH8 1-894): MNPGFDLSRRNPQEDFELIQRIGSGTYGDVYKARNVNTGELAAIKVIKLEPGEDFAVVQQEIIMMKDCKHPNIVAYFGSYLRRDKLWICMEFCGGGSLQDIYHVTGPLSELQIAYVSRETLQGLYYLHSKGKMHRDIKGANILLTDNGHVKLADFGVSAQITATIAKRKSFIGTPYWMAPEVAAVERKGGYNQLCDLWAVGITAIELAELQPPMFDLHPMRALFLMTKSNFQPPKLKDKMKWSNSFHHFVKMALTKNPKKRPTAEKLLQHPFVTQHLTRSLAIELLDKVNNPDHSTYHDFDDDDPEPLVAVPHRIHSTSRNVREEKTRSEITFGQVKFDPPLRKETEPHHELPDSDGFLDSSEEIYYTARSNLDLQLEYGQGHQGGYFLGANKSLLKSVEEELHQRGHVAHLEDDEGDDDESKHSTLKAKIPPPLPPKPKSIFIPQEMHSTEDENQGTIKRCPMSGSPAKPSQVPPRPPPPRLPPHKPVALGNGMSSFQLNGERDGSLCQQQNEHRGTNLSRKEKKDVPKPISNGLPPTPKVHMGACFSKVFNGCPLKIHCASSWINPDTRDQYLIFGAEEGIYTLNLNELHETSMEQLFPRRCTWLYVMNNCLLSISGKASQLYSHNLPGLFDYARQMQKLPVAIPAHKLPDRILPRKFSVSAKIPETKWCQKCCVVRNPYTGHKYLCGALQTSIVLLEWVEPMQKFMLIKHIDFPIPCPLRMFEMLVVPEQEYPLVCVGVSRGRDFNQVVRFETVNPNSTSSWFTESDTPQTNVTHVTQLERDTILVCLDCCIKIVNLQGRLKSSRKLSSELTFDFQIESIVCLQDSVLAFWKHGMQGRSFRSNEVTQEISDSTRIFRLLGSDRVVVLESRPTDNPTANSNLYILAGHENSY
Procedure, shortened: as §1

KIT(V559D, T670I) = molecular target: T3, KIT(V559D, T670I) (Homo sapiens, UniProt P10721, T670I/V559D); conditions: read-out: % control
T3 construct: purchased KinomeScan®
T3 sequence (P10721 26-976 V559D/T670I): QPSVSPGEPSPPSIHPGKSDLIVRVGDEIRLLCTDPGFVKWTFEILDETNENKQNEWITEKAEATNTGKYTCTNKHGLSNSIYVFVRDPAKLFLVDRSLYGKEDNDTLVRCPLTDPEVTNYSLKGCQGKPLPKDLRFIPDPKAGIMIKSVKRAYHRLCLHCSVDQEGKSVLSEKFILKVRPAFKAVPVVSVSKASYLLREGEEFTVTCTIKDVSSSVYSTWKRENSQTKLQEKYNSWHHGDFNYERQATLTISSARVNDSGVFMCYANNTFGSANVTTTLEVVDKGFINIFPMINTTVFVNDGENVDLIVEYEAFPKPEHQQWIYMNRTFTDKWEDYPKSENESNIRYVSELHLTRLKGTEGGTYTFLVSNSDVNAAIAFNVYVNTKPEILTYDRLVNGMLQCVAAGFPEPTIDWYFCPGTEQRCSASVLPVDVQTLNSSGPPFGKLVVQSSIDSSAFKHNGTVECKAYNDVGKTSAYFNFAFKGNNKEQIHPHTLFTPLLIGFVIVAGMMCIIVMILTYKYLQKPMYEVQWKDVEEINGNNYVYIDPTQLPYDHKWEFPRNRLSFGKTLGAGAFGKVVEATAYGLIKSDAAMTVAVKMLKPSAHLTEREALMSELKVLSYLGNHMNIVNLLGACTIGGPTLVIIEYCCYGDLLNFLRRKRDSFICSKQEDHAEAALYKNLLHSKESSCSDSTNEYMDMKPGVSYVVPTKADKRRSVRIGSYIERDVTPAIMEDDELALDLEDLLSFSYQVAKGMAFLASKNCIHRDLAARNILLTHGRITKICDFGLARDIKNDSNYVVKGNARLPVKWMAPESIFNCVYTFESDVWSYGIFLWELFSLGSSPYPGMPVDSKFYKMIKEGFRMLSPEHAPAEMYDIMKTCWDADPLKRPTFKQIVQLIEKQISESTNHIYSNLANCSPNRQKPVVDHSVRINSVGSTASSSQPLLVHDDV
Procedure, shortened: as §1

MYLK = MYLK (Homo sapiens, UniProt Q15746); conditions: read-out: % control
Sequence of MYLK (Q15746 whole entry): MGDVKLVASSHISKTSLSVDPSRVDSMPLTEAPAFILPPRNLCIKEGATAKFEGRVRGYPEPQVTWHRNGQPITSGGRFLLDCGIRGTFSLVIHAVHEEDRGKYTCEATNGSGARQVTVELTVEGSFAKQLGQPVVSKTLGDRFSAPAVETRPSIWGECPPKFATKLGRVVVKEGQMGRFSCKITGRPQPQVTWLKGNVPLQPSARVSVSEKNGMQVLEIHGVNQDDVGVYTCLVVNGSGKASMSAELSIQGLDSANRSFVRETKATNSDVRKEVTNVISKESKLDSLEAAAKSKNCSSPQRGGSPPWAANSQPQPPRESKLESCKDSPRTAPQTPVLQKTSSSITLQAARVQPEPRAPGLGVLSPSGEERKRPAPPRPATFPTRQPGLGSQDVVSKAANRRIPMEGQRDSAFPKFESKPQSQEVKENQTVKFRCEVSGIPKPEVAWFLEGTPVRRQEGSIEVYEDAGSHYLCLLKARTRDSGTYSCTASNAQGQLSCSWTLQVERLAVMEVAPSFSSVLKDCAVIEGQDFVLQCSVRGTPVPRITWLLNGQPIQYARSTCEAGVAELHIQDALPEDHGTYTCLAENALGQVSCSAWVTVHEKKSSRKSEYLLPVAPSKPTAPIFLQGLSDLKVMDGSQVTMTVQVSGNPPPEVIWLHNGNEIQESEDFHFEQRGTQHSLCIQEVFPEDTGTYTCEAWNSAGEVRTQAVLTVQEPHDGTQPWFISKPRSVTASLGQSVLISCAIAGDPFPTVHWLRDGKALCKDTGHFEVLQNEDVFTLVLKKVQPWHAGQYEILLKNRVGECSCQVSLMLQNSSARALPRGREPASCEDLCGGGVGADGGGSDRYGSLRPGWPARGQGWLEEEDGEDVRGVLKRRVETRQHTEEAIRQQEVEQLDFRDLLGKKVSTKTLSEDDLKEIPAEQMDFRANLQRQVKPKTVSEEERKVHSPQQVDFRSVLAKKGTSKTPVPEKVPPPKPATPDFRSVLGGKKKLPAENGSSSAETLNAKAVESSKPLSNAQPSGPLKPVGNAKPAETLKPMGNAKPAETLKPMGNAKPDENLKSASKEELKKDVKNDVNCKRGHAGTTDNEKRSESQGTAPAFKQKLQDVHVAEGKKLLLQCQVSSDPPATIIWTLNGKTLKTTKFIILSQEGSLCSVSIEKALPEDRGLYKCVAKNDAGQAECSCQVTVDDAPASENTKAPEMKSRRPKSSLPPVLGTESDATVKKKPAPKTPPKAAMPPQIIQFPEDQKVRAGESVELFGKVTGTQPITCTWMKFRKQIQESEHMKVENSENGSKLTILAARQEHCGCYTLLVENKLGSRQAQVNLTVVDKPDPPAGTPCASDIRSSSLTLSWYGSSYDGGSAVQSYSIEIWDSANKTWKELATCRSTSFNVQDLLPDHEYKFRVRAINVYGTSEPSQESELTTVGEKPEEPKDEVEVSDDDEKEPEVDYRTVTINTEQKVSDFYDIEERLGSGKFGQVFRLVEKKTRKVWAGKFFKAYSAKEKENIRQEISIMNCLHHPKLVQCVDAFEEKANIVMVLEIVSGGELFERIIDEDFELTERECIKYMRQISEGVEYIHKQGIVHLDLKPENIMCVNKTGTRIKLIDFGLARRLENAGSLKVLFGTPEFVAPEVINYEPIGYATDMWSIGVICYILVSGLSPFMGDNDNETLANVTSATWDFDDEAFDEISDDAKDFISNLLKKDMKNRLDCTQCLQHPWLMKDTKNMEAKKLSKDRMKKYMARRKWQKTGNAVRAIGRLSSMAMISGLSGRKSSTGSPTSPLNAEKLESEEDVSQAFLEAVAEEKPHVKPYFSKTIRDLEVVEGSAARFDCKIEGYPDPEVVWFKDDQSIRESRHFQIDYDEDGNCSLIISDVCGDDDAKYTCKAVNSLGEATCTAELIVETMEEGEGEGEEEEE
Procedure, shortened: as §1

[1] = molecular target: T4, RPS6KA5(Kin.Dom.2-C-terminal) (Homo sapiens, UniProt O75582); conditions: read-out: % control
T4 construct: RPS6KA5(Kin.Dom.2-C-terminal)
Procedure, shortened: as §1

RIOK1 = molecular target: T5, RIOK1 (Homo sapiens, UniProt Q9BRS2); conditions: RIOK1, 1 μM; read-out: % control
T5 sequence (Q9BRS2 1-568): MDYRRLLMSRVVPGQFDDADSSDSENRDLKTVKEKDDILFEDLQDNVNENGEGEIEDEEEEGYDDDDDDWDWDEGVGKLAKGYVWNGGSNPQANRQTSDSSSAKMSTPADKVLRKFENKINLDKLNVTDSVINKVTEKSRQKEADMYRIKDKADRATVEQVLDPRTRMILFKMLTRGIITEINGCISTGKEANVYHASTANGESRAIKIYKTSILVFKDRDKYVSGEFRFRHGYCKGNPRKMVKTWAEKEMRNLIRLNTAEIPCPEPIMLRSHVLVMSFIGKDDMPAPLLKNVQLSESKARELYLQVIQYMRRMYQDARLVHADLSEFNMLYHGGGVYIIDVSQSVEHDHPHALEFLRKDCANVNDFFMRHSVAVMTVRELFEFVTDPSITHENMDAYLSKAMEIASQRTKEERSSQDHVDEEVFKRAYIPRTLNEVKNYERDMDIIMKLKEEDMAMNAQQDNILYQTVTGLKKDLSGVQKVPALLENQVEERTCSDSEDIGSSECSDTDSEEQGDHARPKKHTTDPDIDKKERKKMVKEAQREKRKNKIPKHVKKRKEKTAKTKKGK
Procedure, shortened: as §1

MAP3K1 = MAP3K1 (Homo sapiens, UniProt Q13233); conditions: MAP3K1, 1 μM; read-out: % control
Sequence of MAP3K1 (Q13233 whole entry): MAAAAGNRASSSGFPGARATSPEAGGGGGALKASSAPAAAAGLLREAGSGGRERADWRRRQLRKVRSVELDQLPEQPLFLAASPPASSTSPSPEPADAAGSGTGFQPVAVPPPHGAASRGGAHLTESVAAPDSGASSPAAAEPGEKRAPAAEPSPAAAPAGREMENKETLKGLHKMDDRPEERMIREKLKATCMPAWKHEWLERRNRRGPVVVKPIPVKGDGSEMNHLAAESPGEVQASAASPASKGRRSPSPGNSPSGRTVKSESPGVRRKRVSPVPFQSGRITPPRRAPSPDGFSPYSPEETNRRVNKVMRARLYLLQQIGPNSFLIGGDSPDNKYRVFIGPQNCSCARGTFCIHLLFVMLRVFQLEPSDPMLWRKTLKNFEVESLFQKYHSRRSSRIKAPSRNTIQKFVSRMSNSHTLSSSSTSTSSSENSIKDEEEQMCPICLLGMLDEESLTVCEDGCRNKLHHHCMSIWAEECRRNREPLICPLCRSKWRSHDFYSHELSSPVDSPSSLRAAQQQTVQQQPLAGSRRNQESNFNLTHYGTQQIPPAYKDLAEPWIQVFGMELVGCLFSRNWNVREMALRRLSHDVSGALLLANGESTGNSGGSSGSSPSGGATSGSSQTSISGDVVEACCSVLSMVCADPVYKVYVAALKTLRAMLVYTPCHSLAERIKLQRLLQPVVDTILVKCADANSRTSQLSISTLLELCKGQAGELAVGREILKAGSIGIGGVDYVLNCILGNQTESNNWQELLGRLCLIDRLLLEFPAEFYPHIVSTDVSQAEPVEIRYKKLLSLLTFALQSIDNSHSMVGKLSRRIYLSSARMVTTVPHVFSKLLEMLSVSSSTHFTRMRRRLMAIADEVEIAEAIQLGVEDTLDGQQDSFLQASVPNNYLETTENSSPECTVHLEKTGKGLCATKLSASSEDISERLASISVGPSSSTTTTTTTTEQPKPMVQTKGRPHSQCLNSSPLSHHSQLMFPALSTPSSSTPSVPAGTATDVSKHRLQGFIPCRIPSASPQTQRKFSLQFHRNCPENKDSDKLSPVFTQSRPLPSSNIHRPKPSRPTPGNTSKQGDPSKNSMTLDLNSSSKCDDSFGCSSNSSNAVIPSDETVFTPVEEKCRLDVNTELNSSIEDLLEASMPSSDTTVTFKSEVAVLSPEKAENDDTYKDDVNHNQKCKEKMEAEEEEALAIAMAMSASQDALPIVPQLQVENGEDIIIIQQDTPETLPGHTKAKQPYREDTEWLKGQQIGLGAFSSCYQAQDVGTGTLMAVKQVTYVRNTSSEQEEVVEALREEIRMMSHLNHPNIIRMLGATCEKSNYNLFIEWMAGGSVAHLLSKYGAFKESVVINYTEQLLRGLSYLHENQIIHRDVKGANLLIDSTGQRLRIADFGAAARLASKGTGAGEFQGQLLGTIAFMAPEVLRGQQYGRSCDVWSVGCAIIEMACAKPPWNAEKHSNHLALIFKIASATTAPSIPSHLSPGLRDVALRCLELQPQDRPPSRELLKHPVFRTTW
Procedure, shortened: as §1

IRAK3 = molecular target: T6, IRAK3 (Homo sapiens, UniProt Q9Y616); conditions: IRAK3, 1 μM; read-out: % control
T6 construct: purchased KinomeScan®
T6 sequence (Q9Y616 1-596): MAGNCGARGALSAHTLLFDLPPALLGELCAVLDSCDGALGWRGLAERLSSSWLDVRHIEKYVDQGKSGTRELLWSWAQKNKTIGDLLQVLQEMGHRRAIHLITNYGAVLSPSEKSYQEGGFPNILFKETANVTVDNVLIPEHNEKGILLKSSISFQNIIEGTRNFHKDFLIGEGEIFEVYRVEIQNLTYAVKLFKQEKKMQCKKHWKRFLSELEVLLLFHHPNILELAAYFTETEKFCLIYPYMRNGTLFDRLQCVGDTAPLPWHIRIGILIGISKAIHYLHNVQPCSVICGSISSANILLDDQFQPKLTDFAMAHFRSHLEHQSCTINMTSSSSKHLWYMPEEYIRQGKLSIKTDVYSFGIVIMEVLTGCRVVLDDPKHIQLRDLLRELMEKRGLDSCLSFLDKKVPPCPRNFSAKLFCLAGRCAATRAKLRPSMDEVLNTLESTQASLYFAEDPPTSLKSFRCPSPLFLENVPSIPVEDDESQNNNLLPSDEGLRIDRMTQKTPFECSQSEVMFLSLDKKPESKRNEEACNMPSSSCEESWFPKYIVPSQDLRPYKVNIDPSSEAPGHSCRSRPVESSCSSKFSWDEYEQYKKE
Procedure, shortened: as §1

Sequence of HCK (P08631 whole entry): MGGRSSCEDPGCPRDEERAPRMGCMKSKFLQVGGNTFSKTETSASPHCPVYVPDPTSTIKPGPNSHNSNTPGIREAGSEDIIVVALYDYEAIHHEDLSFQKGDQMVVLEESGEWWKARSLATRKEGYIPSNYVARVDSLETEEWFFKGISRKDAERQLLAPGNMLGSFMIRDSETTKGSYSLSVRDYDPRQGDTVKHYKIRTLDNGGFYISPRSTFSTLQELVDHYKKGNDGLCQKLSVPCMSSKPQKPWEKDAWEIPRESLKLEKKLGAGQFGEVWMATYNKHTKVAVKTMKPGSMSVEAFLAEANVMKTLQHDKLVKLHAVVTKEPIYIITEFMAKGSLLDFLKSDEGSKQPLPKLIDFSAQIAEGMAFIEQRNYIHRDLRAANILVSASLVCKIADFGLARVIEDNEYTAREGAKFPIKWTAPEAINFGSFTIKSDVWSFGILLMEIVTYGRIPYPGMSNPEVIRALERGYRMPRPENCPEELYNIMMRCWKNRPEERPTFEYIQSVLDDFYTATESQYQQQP

SMILES	remaining binding at 1 µM (HCK) [%]	remaining binding at 1 µM (TRKC) [%]	remaining binding at 1 µM (KIT-autoinhibited) [%]	remaining binding at 1 µM (MAP4K3) [%]	remaining binding at 1 µM (KIT(V559D, T670I)) [%]	remaining binding at 1 µM (MYLK) [%]	remaining binding at 1 µM [1] [%]	remaining binding at 1 µM (RIOK1) [%]	remaining binding at 1 µM (MAP3K1) [%]	remaining binding at 1 µM (IRAK3) [%]
CNc1c(-c2cnn([C@H]3CCN(C(C)=O)C[C@@H]3F)c2)cnc2[nH]cc(Cl)c12 [Compound 77, 1-((3S,4S)-4-(4-(3-chloro-4-(methylamino)-1H-pyrrolo[2,3-b]pyridin-5-yl)-1H-pyrazol-1-yl)-3-fluoropiperidin-1-yl)ethan-1-one]	100	51	23	94	9.7	72	100	0	56	40
CNc1c(-c2ccc(C(=O)N3CCC(N4CCOCC4)CC3)cc2)cnc2[nH]cc(Cl)c12 [Compound 96, (4-(3-chloro-4-(methylamino)-1H-pyrrolo[2,3-b]pyridin-5-yl)phenyl)(4-morpholinopiperidin-1-yl)methanone]	100	82	64	83	27	85	100	0.15	73	76
O=C(c1ccc(-c2cnc3[nH]cc(Cl)c3c2NC2CCCC2)cc1)N1CCC(N2CCOCC2)CC1 [Compound 101, (4-(3-chloro-4-(cyclopentylamino)-1H-pyrrolo[2,3-b]pyridin-5-yl)phenyl)(4-morpholinopiperidin-1-yl)methanone]	96	100	100	74	71	83	96	11	100	37
